# Experimental data from US6872727B1, “Polycyclic pyrimidine -2,4(1H,3H)-diones with functionalized alkyl residues at the 1- and/or 3-position(s); methods for their synthesis and pharmaceutical preparation” (Privates Institut fur Biomedizinische Forschung und Beratung, priority 1999, dated 2005).
# Molecular target: Clostridium histolyticum collagenase (EC 3.4.24.3)
# Test: Inhibition of Clostridium histolyticum collagenase, spectrophotometric FALGPA assay
# Type: biochemical
# Settings: chromogenic substrate FALGPA; read-out: C. histolyticum (50% inhibition)
# Excerpt: The activity of Clostidium histolyticum collagenase may be readily determined by a simple spectrophotometric assay using the synthetic chromogenic peptide substrate N-(3-[2-furyl]acryloyi)-leucine-glycine-proline-alanine (FALGPA; Van Hart, H. E. and Steinbrink, D. R. 1981, Anal. Biochem. 113, 356). The degree of inhibition of the degradation of this chromogenic substrate by the addition of the various test substances described in Table 1 may be easily quantified. The enzyme and substrate are commercially available.
row,SMILES,IC50 [µM]
1,"CC(S)CCn1c(=O)[nH]c(=O)c2ccccc21 (racemic) [Example 3, (R,S)-1-(3-mercaptobut-1-yl)-chinazolin-2,4(1H,3H)-dione]",27.5
2,"O=c1[nH]c(=O)n(CCCS)c2ccccc12 [Example 4, 1-(3-mercaptopropyl)-chinazolin-2,4(1H,3H)-dione]",53.8
3,"O=c1[nH]c(=O)n(CCS)c2ccccc12 [Example 5, 1-(2-mercaptoethyl)-chinazolin-2,4(1H,3H)-dione]",39.2
4,"Cn1c(=O)c2ccccc2n(CCCS)c1=O [Example 7, 1-(3-mercaptoprop-1-yl)-3-methyl-chinazolin-2,4(1H,3H)-dione]",11.5
